Structures can show the parent of a compound that is named as a salt.
Biological target: human JAK2 (Homo sapiens (Human), UniProt O60674)
Test: In vitro JAK kinase assay (HTRF), JAK2
Assay type: biochemical
Conditions: 1 mM ATP
Protocol: (§1) Compounds herein were tested for inhibitory activity of JAK targets according to the following in vitro assay described in Park et al., Analytical Biochemistry 1999, 269, 94-104. The catalytic domains of human JAK1 (a.a. 837-1142), JAK2 (a.a. 828-1132) and JAK3 (a.a. 781-1124) were expressed using baculovirus in insect cells and purified. The catalytic activity of JAK1, JAK2 or JAK3 was assayed by measuring the phosphorylation of a biotinylated peptide. The phosphorylated peptide was detected by homogenous time resolved fluorescence (HTRF). IC50s of compounds were measured for each kinase in the 40 μL reactions that contain the enzyme, ATP and 500 nM peptide in 50 mM Tris (pH 7.8) buffer with 100 mM NaCl, 5 mM DTT, and 0.1 mg/mL (0.01%) BSA. For the 1 mM IC50 measurements, ATP concentration in the reactions was 1 mM. Reactions were carried out at room temperature for 1 hour and then stopped with 20 μL 45 mM EDTA, 300 nM SA-APC, 6 nM Eu-Py20 in assay buffer (Perkin Elmer, Boston, Mass.). Binding to the Europium labeled antibody took place for 40 minutes and HTRF signal was measured on a PHERA star plate reader (BMG, Cary, N.C.). The Example compounds were each tested in the Example A assay (see Table 1 for data for the compounds of the examples as tested by the assay of Example A at 1 mM ATP).

Sequence of human JAK2 (O60674 828-1132): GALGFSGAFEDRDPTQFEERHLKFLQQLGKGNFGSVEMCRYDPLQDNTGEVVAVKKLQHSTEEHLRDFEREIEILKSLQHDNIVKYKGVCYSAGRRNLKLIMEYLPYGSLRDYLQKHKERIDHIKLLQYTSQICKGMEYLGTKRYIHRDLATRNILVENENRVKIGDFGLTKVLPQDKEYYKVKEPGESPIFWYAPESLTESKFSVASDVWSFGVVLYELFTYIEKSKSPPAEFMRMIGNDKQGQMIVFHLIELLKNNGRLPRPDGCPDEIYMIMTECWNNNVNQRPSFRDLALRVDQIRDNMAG

| Molecule | IC50 |
| --- | --- |
| Cc1nc2cnc3ccsc3c2n1[C@@H]1CC[C@@H](CC#N)[C@H](O)C1.Cc1nc2cnc3ccsc3c2n1[C@H]1CC[C@H](CC#N)[C@@H](O)C1 (mixture of isomers) [41 (first peak), [(1R,2S,4S)-4-(2-Methyl-1H-imidazo[4,5-d]thieno[3,2-b]pyridin-1-yl)-2-hydroxycyclohexyl]acetonitrile and [(1S,2R,4R)-4-(2-methyl-1H-imidazo[4,5-d]thieno[3,2-b]pyridin-1-yl)-2-hydroxycyclohexyl]acetonitrile] | < 1000 nM |
| C[C@@H](O)c1nc2cnc3ccsc3c2n1C1CCC(O)(CC#N)CC1 (single isomer, unassigned) [24 (second peak)] | > 2000 nM |
| Cc1nc2cnc3ccsc3c2n1[C@H]1CC[C@H](CC#N)[C@H](O)C1 (racemic) [Example 34, Mixture of [(1R,2R,4S)-2-hydroxy-4-(2-methyl-1H-imidazo[4,5-d]thieno[3,2-b]pyridin-1-yl)cyclohexyl]acetonitrile trifluoroacetate and [(1S,2S,4R)-2-hydroxy-4-(2-methyl-1H-imidazo[4,5-d]thieno[3,2-b]pyridin-1-yl)cyclohexyl]acetonitrile trifluoroacetate] | < 2000 nM |

Biological target: human JAK1 (Homo sapiens, UniProt P23458)
Test: In vitro JAK kinase assay (HTRF), JAK1
Assay type: biochemical
Conditions: 1 mM ATP; read-out: JAK1 IC50
Protocol: as §1

| Molecule | IC50 |
| --- | --- |
| C[C@@H](O)c1nc2cnc3ccsc3c2n1C1CCNCC1F (single isomer, unassigned) [9 (2nd peak)] | < 1000 nM |
| Cc1nc2cnc3ccsc3c2n1[C@H]1CC[C@H](CC#N)[C@H](O)C1 (racemic) [Example 34, Mixture of [(1R,2R,4S)-2-hydroxy-4-(2-methyl-1H-imidazo[4,5-d]thieno[3,2-b]pyridin-1-yl)cyclohexyl]acetonitrile trifluoroacetate and [(1S,2S,4R)-2-hydroxy-4-(2-methyl-1H-imidazo[4,5-d]thieno[3,2-b]pyridin-1-yl)cyclohexyl]acetonitrile trifluoroacetate] | < 1000 nM |

Same assay, conditions: JAK1 IC50 (nM), 1 mM ATP

| Molecule | IC50 |
| --- | --- |
| Cc1nc2cnc3ccsc3c2n1[C@@H]1CC[C@@H](CC#N)[C@H](O)C1.Cc1nc2cnc3ccsc3c2n1[C@H]1CC[C@H](CC#N)[C@@H](O)C1 (mixture of isomers) [41 (first peak), [(1R,2S,4S)-4-(2-Methyl-1H-imidazo[4,5-d]thieno[3,2-b]pyridin-1-yl)-2-hydroxycyclohexyl]acetonitrile and [(1S,2R,4R)-4-(2-methyl-1H-imidazo[4,5-d]thieno[3,2-b]pyridin-1-yl)-2-hydroxycyclohexyl]acetonitrile] | < 100 nM |
| Cc1nc2cnc3ccsc3c2n1[C@@H]1CC[C@@H](CC#N)[C@H](O)C1.Cc1nc2cnc3ccsc3c2n1[C@H]1CC[C@H](CC#N)[C@@H](O)C1 (mixture of isomers) [41 (second peak), [(1R,2S,4S)-4-(2-Methyl-1H-imidazo[4,5-d]thieno[3,2-b]pyridin-1-yl)-2-hydroxycyclohexyl]acetonitrile and [(1S,2R,4R)-4-(2-methyl-1H-imidazo[4,5-d]thieno[3,2-b]pyridin-1-yl)-2-hydroxycyclohexyl]acetonitrile] | > 2000 nM |

System: human JAK1
Test: In vitro JAK kinase assay (HTRF), JAK1
Assay type: biochemical
Conditions: ratio of JAK2 IC50 to JAK1 IC50 at 1 mM ATP
Protocol: as §1

| Molecule | JAK2/JAK1 |
| --- | --- |
| C[C@@H](O)c1nc2cnc3ccsc3c2n1C1CCNCC1F (single isomer, unassigned) [9 (2nd peak)] | >10 |
| ((1R,2R,4S)-2-Hydroxy-4-{2-[(1R)-1-hydroxyethyl]-1H-imidazo[4,5-d]thieno[3,2-b]pyridin-1-yl}cyclohexyl)acetonitrile and ((1S,2S,4R)-2-hydroxy-4-{2-[(1R)-1-hydroxyethyl]-1H-imidazo[4,5-d]thieno[3,2-b]pyridin-1-yl}cyclohexyl)acetonitrile [36 (second peak)] | >10 |
| COC(=O)NC[C@H]1CC[C@H](n2c([C@@H](C)O)nc3cnc4ccsc4c32)CC1 [Example 78, Methyl [(trans-4-{2-[(1R)-1-hydroxyethyl]-1H-imidazo[4,5-d]thieno[3,2-b]pyridin-1-yl}cyclohexyl)methyl]carbamate] | >10 |
| Cc1nc2cnc3ccsc3n2c1-c1ccc(CC#N)cc1 [Example 33, [4-(7-Methylimidazo[1,2-a]thieno[3,2-e]pyrazin-8-yl)phenyl]acetonitrile] | >7 |
| C[C@@H](O)c1nc2cnc3ccsc3c2n1[C@H]1CC[C@H](CC#N)OC1 [Example 20, ((2R,5S)-5-{2-[(1R)-1-Hydroxyethyl]-1H-imidazo[4,5-d]thieno[3,2-b]pyridin-1-yl}tetrahydro-2H-pyran-2-yl)acetonitrile] | >10 |
| C[C@H](O)c1nc2cnc3ccsc3c2n1[C@H]1CC[C@H](CC#N)OC1 [Example 45, ((2R,5S)-5-{2-[(1S)-1-Hydroxyethyl]-1H-imidazo[4,5-d]thieno[3,2-b]pyridin-1-yl}tetrahydro-2H-pyran-2-yl)acetonitrile] | >10 |
| C[C@@H](O)c1nc2cnc3ccsc3c2n1[C@H]1CC[C@H](CNS(C)(=O)=O)CC1 [Example 80, N-[(trans-4-{2-[(1R)-1-Hydroxyethyl]-1H-imidazo[4,5-d]thieno[3,2-b]pyridin-1-yl}cyclohexyl)methyl]methanesulfonamide] | >10 |
| C[C@@H](O)c1nc2cnc3ccsc3c2n1C1CCC(O)(CC#N)CC1 (single isomer, unassigned) [24 (second peak)] | >10 |
| Cc1nc2cnc3ccsc3c2n1[C@H]1CC[C@H](CC#N)OC1 [Example 38, [(2R,5S)-5-(2-Methyl-1H-imidazo[4,5-d]thieno[3,2-b]pyridin-1-yl)tetrahydro-2H-pyran-2-yl]acetonitrile] | >10 |
| CNS(=O)(=O)C[C@H]1CC[C@H](n2c([C@@H](C)O)nc3cnc4ccsc4c32)CC1 [Example 14, 1-(trans-4-{2-[(1R)-1-hydroxyethyl]-1H-imidazo[4,5-d]thieno[3,2-b]pyridin-1-yl}cyclohexyl)-N-methylmethanesulfonamide] | >5 |
| CC(=O)NC[C@H]1CC[C@H](n2c([C@@H](C)O)nc3cnc4ccsc4c32)CC1 [Example 79, N-[(trans-4-{2-[(1R)-1-Hydroxyethyl]-1H-imidazo[4,5-d]thieno[3,2-b]pyridin-1-yl}cyclohexyl)methyl]acetamide] | >10 |
| C[C@@H](O)c1nc2cnc3ccsc3c2n1[C@H]1CCCN(C(=O)CCCC#N)C1 [Example 59, 5-((3S)-3-{2-[(1R)-1-Hydroxyethyl]-1H-imidazo[4,5-d]thieno[3,2-b]pyridin-1-yl}piperidin-1-yl)-5-oxopentanenitrile] | >10 |
| C[C@@H](O)c1nc2cnc3ccsc3c2n1[C@H]1CC[C@H](CC#N)CC1.Cl [Example 10, (trans-4-{2-[(1R)-1-Hydroxyethyl]-1H-imidazo[4,5-d]thieno[3,2-b]pyridin-1-yl}cyclohexyl)acetonitrile HCl salt] | >10 |
| C[C@@H](O)c1nc2cnc3ccsc3c2n1C1CCN(CC#N)CC1.O=C(O)C(F)(F)F [Example 61, (4-{2-[(1R)-1-Hydroxyethyl]-1H-imidazo[4,5-d]thieno[3,2-b]pyridin-1-yl}piperidin-1-yl)acetonitrile trifluoroacetate] | >10 |
| CCOC(=O)NC[C@H]1CC[C@H](n2c([C@@H](C)O)nc3cnc4ccsc4c32)CC1 [Example 82, Ethyl [(trans-4-{2-[(1R)-1-hydroxyethyl]-1H-imidazo[4,5-d]thieno[3,2-b]pyridin-1-yl}cyclohexyl)methyl]carbamate] | >10 |
| C[C@@H](O)c1nc2cnc3ccsc3c2n1[C@@H]1CC[C@@H](CC#N)OC1 [Example 44, ((2S,5R)-5-{2-[(1R)-1-Hydroxyethyl]-1H-imidazo[4,5-d]thieno[3,2-b]pyridin-1-yl}tetrahydro-2H-pyran-2-yl)acetonitrile] | >10 |
| N#CC[C@H]1CC[C@H](n2c(C3CC3)nc3cnc4ccsc4c32)CC1 [Example 26, [trans-4-(2-Cyclopropyl-1H-imidazo[4,5-d]thieno[3,2-b]pyridin-1-yl)cyclohexyl]acetonitrile] | >10 |
| COC(=O)NC[C@H]1CC[C@H](n2c(CC#N)nc3cnc4ccsc4c32)CC1 [Example 86, Methyl({trans-4-[2-(cyanomethyl)-1H-imidazo[4,5-d]thieno[3,2-b]pyridin-1-yl]cyclohexyl}methyl)carbamate] | >10 |
| CCc1nc2cnc3ccsc3c2n1[C@H]1CC[C@H](CC#N)OC1 [Example 39, [(2R,5S)-5-(2-Ethyl-1H-imidazo[4,5-d]thieno[3,2-b]pyridin-1-yl)tetrahydro-2H-pyran-2-yl]acetonitrile] | >10 |
| CC(C)OC(=O)NC[C@H]1CC[C@H](n2c(CC#N)nc3cnc4ccsc4c32)CC1 [Example 88, Isopropyl({trans-4-[2-(cyanomethyl)-1H-imidazo[4,5-d]thieno[3,2-b]pyridin-1-yl]cyclohexyl}methyl)carbamate] | >10 |
| CC(C)OC(=O)NC[C@H]1CC[C@H](n2c([C@@H](C)O)nc3cnc4ccsc4c32)CO1 [Example 76, Isopropyl [((2R,5S)-5-{2-[(1R)-1-hydroxyethyl]-1H-imidazo[4,5-d]thieno[3,2-b]pyridin-1-yl}tetrahydro-2H-pyran-2-yl)methyl]carbamate] | >10 |
| CC(C)c1nc2cnc3ccsc3c2n1[C@H]1CC[C@H](CC#N)CC1 [Example 27, [trans-4-(2-Isopropyl-1H-imidazo[4,5-d]thieno[3,2-b]pyridin-1-yl)cyclohexyl]acetonitrile] | >10 |
| C[C@@H](O)c1nc2cnc3ccsc3c2n1C1CCN(CCC#N)CC1 [Example 16, 3-(4-{2-[(1R)-1-Hydroxyethyl]-1H-imidazo[4,5-d]thieno[3,2-b]pyridin-1-yl}piperidin-1-yl)propanenitrile] | >10 |
| C[C@@H](O)c1nc2cnc3ccsc3c2n1[C@H]1CC[C@H](CO)CC1 [Example 11, (1R)-1-{1-[trans-4-(Hydroxymethyl)cyclohexyl]-1H-imidazo[4,5-d]thieno[3,2-b]pyridin-2-yl}ethanol] | >10 |
| CCCOC(=O)NC[C@H]1CC[C@H](n2c([C@@H](C)O)nc3cnc4ccsc4c32)CC1 [Example 83, Propyl [(trans-4-{2-[(1R)-1-hydroxyethyl]-1H-imidazo[4,5-d]thieno[3,2-b]pyridin-1-yl}cyclohexyl)methyl]carbamate] | >10 |

Source: US9908895B2, “Tricyclic fused thiophene derivatives as JAK inhibitors” (Incyte Corporation, priority 2012, dated 2018)
